System: subjects with moderate-to-severe plaque psoriasis
Assay: Hematology and chemistry laboratory values by CTCAE grade
Format: in vivo, human
Conditions: through Week 56
Excerpt: The proportion of participants who discontinued study intervention due to one or more AEs was low (n=4). All events were singular in nature with no apparent dose-dependent increase (Table 48 and Table 52). The number of participants with abnormal hematology and chemistry laboratory values with CTCAE toxicity grade≥3 were low through the end of the study (Table 43 through Table 46). There was no apparent dose-dependent increase in laboratory abnormality occurrences.

SMILES: CC(=O)NCCCC[C@@H]1NC(=O)[C@H](Cc2c[nH]c3c(C)cccc23)NC(=O)[C@H]([C@@H](C)O)NC(=O)[C@H](CC(N)=O)NC(=O)[C@@H](NC(C)=O)C(C)(C)SSC(C)(C)[C@@H](C(=O)N[C@@H](Cc2ccc(OCCN)cc2)C(=O)N[C@@H](Cc2ccc3ccccc3c2)C(=O)NC2(C(=O)N[C@@H](CCC(=O)O)C(=O)N[C@@H](CC(N)=O)C(=O)N[C@@H](Cc3cccnc3)C(=O)N(C)CC(N)=O)CCOCC2)NC1=O [IL-23 receptor antagonist peptide, Ac-[Pen]*-N-T-[W(7-Me)]-[Lys(Ac)]-[Pen]*-Phe[4-(2-aminoethoxy)]-[2-Nal]-[THP]-E-N-[3-Pal]-Sarc-NH2 (*[Pen]-[Pen]* formdisulfidebond)]
- Alanine Aminotransferase (increased): Subjects with Grade 3 (25 mg BID): 0
- Alanine Aminotransferase (increased): Subjects with Grade 4 (25 mg BID): 0
- Albumin (decreased): Subjects with Grade 1 (25 mg BID): 0
- Albumin (decreased): Subjects with Grade 2 (25 mg BID): 0
- Albumin (decreased): Subjects with Grade 3 (25 mg BID): 0
- Albumin (decreased): Subjects with Grade 4 (25 mg BID): 0
- Albumin (decreased): Subjects with postbaseline maximum toxicity grade >0 (25 mg BID): 0
- Alkaline Phosphatase (increased): Subjects with Grade 2 (25 mg BID): 0
- Alkaline Phosphatase (increased): Subjects with Grade 3 (25 mg BID): 0
- Alkaline Phosphatase (increased): Subjects with Grade 4 (25 mg BID): 0
- Aspartate Aminotransferase (increased): Subjects with Grade 3 (25 mg BID): 0
- Aspartate Aminotransferase (increased): Subjects with Grade 4 (25 mg BID): 0
- Calcium corrected (decreased): Subjects with Grade 2 (25 mg BID): 0
- Calcium corrected (decreased): Subjects with Grade 3 (25 mg BID): 0
- Calcium corrected (decreased): Subjects with Grade 4 (25 mg BID): 0
- Calcium corrected (increased): Subjects with Grade 1 (25 mg BID): 0
- Calcium corrected (increased): Subjects with Grade 2 (25 mg BID): 0
- Calcium corrected (increased): Subjects with Grade 3 (25 mg BID): 0
- Calcium corrected (increased): Subjects with Grade 4 (25 mg BID): 0
- Calcium corrected (increased): Subjects with postbaseline maximum toxicity grade >0 (25 mg BID): 0
- Cholesterol (increased): Subjects with Grade 2 (25 mg BID): 0
- Cholesterol (increased): Subjects with Grade 3 (25 mg BID): 0
- Cholesterol (increased): Subjects with Grade 4 (25 mg BID): 0
- Creatinine (increased): Subjects with Grade 1 (25 mg BID): 0
- Creatinine (increased): Subjects with Grade 2 (25 mg BID): 0
- Creatinine (increased): Subjects with Grade 3 (25 mg BID): 0
- Creatinine (increased): Subjects with Grade 4 (25 mg BID): 0
- Creatinine (increased): Subjects with postbaseline maximum toxicity grade >0 (25 mg BID): 0
- Gamma Glutamyl Transferase (increased): Subjects with Grade 2 (25 mg BID): 0
- Gamma Glutamyl Transferase (increased): Subjects with Grade 3 (25 mg BID): 0
- Gamma Glutamyl Transferase (increased): Subjects with Grade 4 (25 mg BID): 0
- Glucose (decreased): Subjects with Grade 2 (25 mg BID): 0
- Glucose (decreased): Subjects with Grade 3 (25 mg BID): 0
- Glucose (decreased): Subjects with Grade 4 (25 mg BID): 0
- Hemoglobin (g/L) (decreased): subjects with Grade 1 (25 mg BID): 0
- Hemoglobin (g/L) (decreased): subjects with Grade 2 (25 mg BID): 0
- Hemoglobin (g/L) (decreased): subjects with Grade 3 (25 mg BID): 0
- Hemoglobin (g/L) (decreased): subjects with Grade 4 (25 mg BID): 0
- Hemoglobin (g/L) (decreased): subjects with postbaseline maximum toxicity grade >0 (25 mg BID): 0
- Hemoglobin (g/L) (increased): subjects with Grade 2 (25 mg BID): 0
- Hemoglobin (g/L) (increased): subjects with Grade 3 (25 mg BID): 0
- Hemoglobin (g/L) (increased): subjects with Grade 4 (25 mg BID): 0
- Lymphocytes (×10^9/L) (decreased): subjects with Grade 3 (25 mg BID): 0
- Lymphocytes (×10^9/L) (decreased): subjects with Grade 4 (25 mg BID): 0
- Lymphocytes (×10^9/L) (increased): subjects with Grade 1 (25 mg BID): 0
- Lymphocytes (×10^9/L) (increased): subjects with Grade 3 (25 mg BID): 0
- Lymphocytes (×10^9/L) (increased): subjects with Grade 4 (25 mg BID): 0
- Magnesium (decreased): Subjects with Grade 1 (25 mg BID): 0
- Magnesium (decreased): Subjects with Grade 2 (25 mg BID): 0
- Magnesium (decreased): Subjects with Grade 3 (25 mg BID): 0
- Magnesium (decreased): Subjects with Grade 4 (25 mg BID): 0
- Magnesium (decreased): Subjects with postbaseline maximum toxicity grade >0 (25 mg BID): 0
- Magnesium (increased): Subjects with Grade 2 (25 mg BID): 0
- Magnesium (increased): Subjects with Grade 3 (25 mg BID): 0
- Magnesium (increased): Subjects with Grade 4 (25 mg BID): 0
- Neutrophils (×10^9/L) (decreased): subjects with Grade 3 (25 mg BID): 0
- Neutrophils (×10^9/L) (decreased): subjects with Grade 4 (25 mg BID): 0
- Platelets (×10^9/L) (decreased): subjects with Grade 2 (25 mg BID): 0
- Platelets (×10^9/L) (decreased): subjects with Grade 3 (25 mg BID): 0
- Platelets (×10^9/L) (decreased): subjects with Grade 4 (25 mg BID): 0
- Potassium (decreased): Subjects with Grade 1 (25 mg BID): 0
- Potassium (decreased): Subjects with Grade 2 (25 mg BID): 0
- Potassium (decreased): Subjects with Grade 3 (25 mg BID): 0
- Potassium (decreased): Subjects with Grade 4 (25 mg BID): 0
- Potassium (decreased): Subjects with postbaseline maximum toxicity grade >0 (25 mg BID): 0
- Potassium (increased): Subjects with Grade 2 (25 mg BID): 0
- Potassium (increased): Subjects with Grade 3 (25 mg BID): 0
- Potassium (increased): Subjects with Grade 4 (25 mg BID): 0
- Sodium (decreased): Subjects with Grade 1 (25 mg BID): 0
- Sodium (decreased): Subjects with Grade 2 (25 mg BID): 0
- Sodium (decreased): Subjects with Grade 3 (25 mg BID): 0
- Sodium (decreased): Subjects with Grade 4 (25 mg BID): 0
- Sodium (decreased): Subjects with postbaseline maximum toxicity grade >0 (25 mg BID): 0
- Sodium (increased): Subjects with Grade 2 (25 mg BID): 0
- Sodium (increased): Subjects with Grade 3 (25 mg BID): 0
- Sodium (increased): Subjects with Grade 4 (25 mg BID): 0
- Total Bilirubin (increased): Subjects with Grade 2 (25 mg BID): 0
- Total Bilirubin (increased): Subjects with Grade 3 (25 mg BID): 0
- Total Bilirubin (increased): Subjects with Grade 4 (25 mg BID): 0
- Triglycerides (increased): Subjects with Grade 3 (25 mg BID): 0
- Triglycerides (increased): Subjects with postbaseline maximum toxicity grade >0 (25 mg BID): 8
- WBC (×10^9/L) (decreased): subjects with Grade 3 (25 mg BID): 0
- WBC (×10^9/L) (decreased): subjects with Grade 4 (25 mg BID): 0
- WBC (×10^9/L) (increased): subjects with Grade 1 (25 mg BID): 0
- WBC (×10^9/L) (increased): subjects with Grade 2 (25 mg BID): 0
- WBC (×10^9/L) (increased): subjects with Grade 3 (25 mg BID): 0
- WBC (×10^9/L) (increased): subjects with Grade 4 (25 mg BID): 0
- WBC (×10^9/L) (increased): subjects with postbaseline maximum toxicity grade >0 (25 mg BID): 0
- Alanine Aminotransferase (increased): Subjects with Grade 1 (25 mg QD): 7
- Alanine Aminotransferase (increased): Subjects with Grade 4 (25 mg QD): 0
- Alanine Aminotransferase (increased): Subjects with postbaseline maximum toxicity grade >0 (25 mg QD): 9
- Albumin (decreased): Subjects with Grade 1 (25 mg QD): 0
- Albumin (decreased): Subjects with Grade 2 (25 mg QD): 0
- Albumin (decreased): Subjects with Grade 3 (25 mg QD): 0
- Albumin (decreased): Subjects with Grade 4 (25 mg QD): 0
- Albumin (decreased): Subjects with postbaseline maximum toxicity grade >0 (25 mg QD): 0
- Alkaline Phosphatase (increased): Subjects with Grade 2 (25 mg QD): 0
- Alkaline Phosphatase (increased): Subjects with Grade 3 (25 mg QD): 0
- Alkaline Phosphatase (increased): Subjects with Grade 4 (25 mg QD): 0
- Aspartate Aminotransferase (increased): Subjects with Grade 1 (25 mg QD): 5
- Aspartate Aminotransferase (increased): Subjects with Grade 3 (25 mg QD): 0
- Aspartate Aminotransferase (increased): Subjects with Grade 4 (25 mg QD): 0
- Calcium corrected (decreased): Subjects with Grade 2 (25 mg QD): 0
- Calcium corrected (decreased): Subjects with Grade 3 (25 mg QD): 0
- Calcium corrected (decreased): Subjects with Grade 4 (25 mg QD): 0
- Calcium corrected (increased): Subjects with Grade 1 (25 mg QD): 0
- Calcium corrected (increased): Subjects with Grade 2 (25 mg QD): 0
- Calcium corrected (increased): Subjects with Grade 3 (25 mg QD): 0
- Calcium corrected (increased): Subjects with Grade 4 (25 mg QD): 0
- Calcium corrected (increased): Subjects with postbaseline maximum toxicity grade >0 (25 mg QD): 0
- Cholesterol (increased): Subjects with Grade 2 (25 mg QD): 0
- Cholesterol (increased): Subjects with Grade 3 (25 mg QD): 0
- Cholesterol (increased): Subjects with Grade 4 (25 mg QD): 0
- Creatinine (increased): Subjects with Grade 2 (25 mg QD): 0
- Creatinine (increased): Subjects with Grade 3 (25 mg QD): 0
- Creatinine (increased): Subjects with Grade 4 (25 mg QD): 0
- Gamma Glutamyl Transferase (increased): Subjects with Grade 1 (25 mg QD): 5
- Gamma Glutamyl Transferase (increased): Subjects with Grade 2 (25 mg QD): 0
- Gamma Glutamyl Transferase (increased): Subjects with Grade 3 (25 mg QD): 0
- Gamma Glutamyl Transferase (increased): Subjects with Grade 4 (25 mg QD): 0
- Gamma Glutamyl Transferase (increased): Subjects with postbaseline maximum toxicity grade >0 (25 mg QD): 5
- Glucose (decreased): Subjects with Grade 2 (25 mg QD): 0
- Glucose (decreased): Subjects with Grade 3 (25 mg QD): 0
- Glucose (decreased): Subjects with Grade 4 (25 mg QD): 0
- Hemoglobin (g/L) (decreased): subjects with Grade 2 (25 mg QD): 0
- Hemoglobin (g/L) (decreased): subjects with Grade 3 (25 mg QD): 0
- Hemoglobin (g/L) (decreased): subjects with Grade 4 (25 mg QD): 0
- Hemoglobin (g/L) (increased): subjects with Grade 2 (25 mg QD): 0
- Hemoglobin (g/L) (increased): subjects with Grade 3 (25 mg QD): 0
- Hemoglobin (g/L) (increased): subjects with Grade 4 (25 mg QD): 0
- Lymphocytes (×10^9/L) (decreased): subjects with Grade 1 (25 mg QD): 0
- Lymphocytes (×10^9/L) (decreased): subjects with Grade 2 (25 mg QD): 0
- Lymphocytes (×10^9/L) (decreased): subjects with Grade 3 (25 mg QD): 0
- Lymphocytes (×10^9/L) (decreased): subjects with Grade 4 (25 mg QD): 0
- Lymphocytes (×10^9/L) (decreased): subjects with postbaseline maximum toxicity grade >0 (25 mg QD): 0
- Lymphocytes (×10^9/L) (increased): subjects with Grade 1 (25 mg QD): 0
- Lymphocytes (×10^9/L) (increased): subjects with Grade 2 (25 mg QD): 0
- Lymphocytes (×10^9/L) (increased): subjects with Grade 3 (25 mg QD): 0
- Lymphocytes (×10^9/L) (increased): subjects with Grade 4 (25 mg QD): 0
- Lymphocytes (×10^9/L) (increased): subjects with postbaseline maximum toxicity grade >0 (25 mg QD): 0
- Magnesium (decreased): Subjects with Grade 1 (25 mg QD): 0
- Magnesium (decreased): Subjects with Grade 2 (25 mg QD): 0
- Magnesium (decreased): Subjects with Grade 3 (25 mg QD): 0
- Magnesium (decreased): Subjects with Grade 4 (25 mg QD): 0
- Magnesium (decreased): Subjects with postbaseline maximum toxicity grade >0 (25 mg QD): 0
- Magnesium (increased): Subjects with Grade 2 (25 mg QD): 0
- Magnesium (increased): Subjects with Grade 3 (25 mg QD): 0
- Magnesium (increased): Subjects with Grade 4 (25 mg QD): 0
- Neutrophils (×10^9/L) (decreased): subjects with Grade 2 (25 mg QD): 0
- Neutrophils (×10^9/L) (decreased): subjects with Grade 3 (25 mg QD): 0
- Neutrophils (×10^9/L) (decreased): subjects with Grade 4 (25 mg QD): 0
